Test results: ChEMBL document CHEMBL2448688, “Selection and optimization of hits from a high-throughput phenotypic screen against Trypanosoma cruzi. Exported from HEOS 25-Oct-2013. See also related datasets CHEMBL3137440 and CHEMBL3137386”
Values after ≈ are worked out from the molar mass of the structure shown. Values joined by “and” are separate entries in the source; they are usually repeats but may differ in a detail not shown here. Identical values can stand only once.

How the values were obtained:
in vitro [1] = details: human, microsomes
[2] = (§1) DNDI: Cytotoxicity in vitro, against rat skeletal myoblast (L-6) cells; details: L-6 cells (skeletal myoblasts), IC50
CYP3A4 [3] = molecular target: T1, CYP3A4 (Homo sapiens, UniProt P08684); test: DNDI: Human CYP3A4 inhibition at 10 uM determined using 6b-hydroxylation of testosterone; details: probe testosterone (6b-hydroxylation)
CYP3A4 [4] = molecular target: T1, CYP3A4; test: DNDI: Human CYP3A4 inhibition at 1 uM determined using 6b-hydroxylation of testosterone; details: probe testosterone (6b-hydroxylation)
[5] = DNDI: Lipophilicity (gLogD) at pH 7.4; details: buffer, pH 7.4, logD
[6] = DNDI: Solubility in 0.01M HCl at pH 2 determined by nephelometry; details: 0.01M HCl, pH 2, Kinetic
in vitro [7] = details: human, microsomes, EH
in vitro [8] = details: human, microsomes, t (1 / 2)
Trypanosoma cruzi [9] = test: (§2) DNDI: Chagas in Vitro; type: functional, Tulahuen C4 (LacZ)
[10] = DNDI: Lipophilicity (gLogD) at pH 3; details: buffer, pH 3, logD
Cytochrome P450 3A4 = Cytochrome P450 3A4 (Homo sapiens, UniProt P08684); test: DNDI: Human CYP3A4 inhibition determined using 6b-hydroxylation of testosterone
Trypanosoma cruzi [11] = test: as §2; type: functional, organism-based, Tulahuen C4 (LacZ)
in vitro [12] = details: rat, microsomes
in vitro [13] = details: rat, microsomes; remark: listed apart in the source
in vitro [14] = details: mouse, microsomes
in vitro [15] = details: mouse, microsomes; remark: listed apart in the source
Leishmania infantum = test: DNDI: Leish (macro) in Vitro; type: functional, organism-based, MHOM/MA(BE)/67
[16] = DNDI: Cytotoxicity in vitro, against human lung fibroblast (MRC-5) cells; details: MRC-5 cells (lung fibroblasts)
[17] = test system: Trypanosoma brucei rhodesiense; test: DNDI: HAT in Vitro; type: functional, organism-based, ATCC 30027; details: Trypanosoma brucei, ATCC 30027
[18] = DNDI: Solubility in phosphate buffer at pH 6.5 determined by nephelometry; details: phosphate buffer, pH 6.5, Kinetic
L6 = test: as §1; details: L-6 cells (skeletal myoblasts)
Trypanosoma cruzi [19] = test: DNDI: Chagas in vivo at 20 mg/kg, 20 days 2x; type: functional, Tulahuen Swiss po
[20] = Trypanosoma cruzi, Tulahuen C4 (LacZ)

T1 sequence (P08684 whole entry): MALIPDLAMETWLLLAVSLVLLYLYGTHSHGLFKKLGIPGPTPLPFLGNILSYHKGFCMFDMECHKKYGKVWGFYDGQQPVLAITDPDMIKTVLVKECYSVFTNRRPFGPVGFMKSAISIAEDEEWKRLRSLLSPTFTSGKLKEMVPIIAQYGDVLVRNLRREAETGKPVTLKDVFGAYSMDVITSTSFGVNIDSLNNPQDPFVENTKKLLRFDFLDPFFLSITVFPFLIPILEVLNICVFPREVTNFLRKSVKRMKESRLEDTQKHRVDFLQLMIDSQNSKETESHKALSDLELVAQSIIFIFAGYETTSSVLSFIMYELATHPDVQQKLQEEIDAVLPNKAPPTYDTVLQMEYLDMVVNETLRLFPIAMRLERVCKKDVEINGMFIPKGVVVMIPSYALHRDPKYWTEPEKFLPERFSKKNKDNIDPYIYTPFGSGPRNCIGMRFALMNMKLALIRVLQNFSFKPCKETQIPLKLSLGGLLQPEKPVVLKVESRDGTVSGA
Sequence of Cytochrome P450 3A4 (P08684 whole entry): as above

SMILES | microsomal CLint (in vitro [1]) [µL/min/mg] | inhibition at 10 µM (CYP3A4 [3]) [%] | chromatographic logD [5] | solubility kinetic [6] [µg/mL] | hepatic extraction ratio (in vitro [7]) | half-life (in vitro [8]) [min] | IC90 (Trypanosoma cruzi [9]) | IC90 (Trypanosoma cruzi [9]; [20]) [nM] | chromatographic logD [10] | IC50 (Cytochrome P450 3A4) [nM] | IC50 (Trypanosoma cruzi [11]) | IC50 (Trypanosoma cruzi [11]; [20]) [nM] | IC50 [17] [nM] | solubility kinetic [18] [µg/mL] | IC50 [2] [nM] | also measured
CS(=O)(=O)N(Cc1c[nH]cn1)c1ccc(-c2ccc(F)cc2)cc1F | 28 | 86.1 | 2.3 | > 100 | 0.52 | 61 | 9.1 nM | 8.4 | 1.6 | < 1000 | 2.6 nM | 2.2 | – | – | > 100000 | inhibition at 1 µM (CYP3A4 [4]): 51.6%
CO/N=C(\C)c1ccc(-n2ccnc2)c(NC(=O)c2ccc(-c3ccccc3)nc2)c1 | 26 | – | 3.3 | > 100 | – | 66 | 24.5 nM | 29.1 | 2.5 | – | 9 nM | 13 | – | – | > 100000 | microsomal CLint (in vitro [12]): 48 µL/min/mg; half-life (in vitro [13]): 36 min; microsomal CLint (in vitro [14]): 33 µL/min/mg; half-life (in vitro [15]): 53 min
O=C(Nc1cc(C(F)(F)F)ccc1-n1ccnc1)c1cnc(-c2ccccc2)nc1 | – | – | – | – | – | – | – | > 100 | – | – | – | > 100 | > 10000 | – | > 100000 | IC50 (Leishmania infantum; Leishmania infantum, MHOM/MA(BE)/67): > 64000 nM; IC50 [16]: > 64000 nM
O=C(Nc1ccccc1-n1ccnc1)c1cnc(-c2ccccc2)nc1 | 18 | 27 | 2.4 | > 100 | 0.4 | 99 | – | 148 | 1.3 | > 10000 | – | 63 | – | – | > 100000 | –
CS(=O)(=O)N(Cc1cnc[nH]1)c1cc(F)cc(-c2nc3ccccc3s2)c1 | – | – | – | – | – | – | 569 nM and > 1000 nM | 615 | – | – | 65 nM and 74 nM | 70 | – | – | 66900 | IC50 (L6): 63900 nM
CCN(c1ccccc1)S(=O)(=O)c1ccc(Cl)c(NC(=O)CNC2CCCN(C)C2)c1.O=CO (configuration not stated) | 89 | – | 1.56 | 101 | 0.815 | 19.5 | – | > 1000 | -0.12 | 16300 | – | > 1000 | 910 | 94.4 | 45700 | –
CO/N=C(\C)c1ccc(-n2ccnc2)c(NC(=O)c2cnc(-c3ccccc3)s2)c1 | – | – | – | – | – | – | 2.77 nM | 3 | – | – | 0.9 nM | 0.617 | > 10000 | – | – | PCR cure rate (Trypanosoma cruzi [19]): 0%
CCN(CC)S(=O)(=O)c1ccc(-n2ccnc2)c(NC(=O)c2cnc(-c3ccccc3)nc2)c1 | 166 | – | 3.2 | 50 (≈ 105 µM) | 0.9 | 10 | 23.5 nM and 8.03 nM | – | 2.7 | 20000 | 6.5 nM and 0.8 nM | – | > 10000 | 1.6 (≈ 3.36 µM) | > 100000 | –
CO/N=C(\C)c1ccc(-n2ccnc2)c(NC(=O)c2cncc(-c3ccccc3)n2)c1 | 117 | 91.9 | 3.7 | > 50 | 0.82 | 15 | 639 nM | 769 | 2.8 | < 1000 | 5.3 nM | 6.2 | – | 3.1 (≈ 7.52 µM) | 4160 | IC50 (L6): 6360 nM; inhibition at 1 µM (CYP3A4 [4]): 75.9%
Cl.NCC(=O)N(Cc1cccnc1)c1ccc(-c2nc3ccccc3s2)cc1 | – | – | – | – | – | – | – | – | – | – | – | – | – | – | – | PCR cure rate (Trypanosoma cruzi [19]): 20%

Second part, led by results:

microsomal CLint (in vitro [1]) [µL/min/mg] | inhibition at 10 µM (CYP3A4 [3]) [%] | chromatographic logD [5] | solubility kinetic [6] [µg/mL] | hepatic extraction ratio (in vitro [7]) | half-life (in vitro [8]) [min] | IC90 (Trypanosoma cruzi [9]) | IC90 (Trypanosoma cruzi [9]; [20]) [nM] | chromatographic logD [10] | IC50 (Cytochrome P450 3A4) [nM] | IC50 (Trypanosoma cruzi [11]) | IC50 (Trypanosoma cruzi [11]; [20]) [nM] | IC50 [17] [nM] | solubility kinetic [18] [µg/mL] | SMILES | IC50 [2] [nM] | also measured
334 | – | – | 95.9 (≈ 204 µM) | 0.943 | 5.2 | – | > 1000 | – | 5830 | – | > 1000 | 604 | 14.5 (≈ 30.8 µM) | CCN(c1ccccc1)S(=O)(=O)c1ccc(Cl)c(NC(=O)c2ccc3c(c2)CCNC3)c1 | 19900 | IC50 (Leishmania infantum): 2160 nM and 8000 nM; IC50 [16]: 29400 nM
14 | – | 4.5 | > 100 | 0.36 | 120 | – | 59 | 3.3 | < 250 | – | 16 | > 10000 | 12.5 | CCOC(COc1ccc2cc(Br)ccc2c1)Cn1ccnc1.O=CO (configuration not stated) | 44200 | –
169 | – | 4.4 | > 100 | – | 10 | – | – | 2.9 | – | – | – | 1420 | > 100 | CCN(c1ccccc1)S(=O)(=O)c1ccc(NC(=O)CN(C)C2CCN(C)CC2)c(Cl)c1.Cl | – | IC50 (Leishmania infantum): 11300 nM and 24000 nM; IC50 [16]: 40600 nM
93 | 49 | 2.7 | > 100 | 0.78 | 19 | – | 151 | 1.6 | > 10000 | – | 23 | – | – | Cc1ccc(-n2ccnc2)c(NC(=O)c2cnc(-c3ccccc3)nc2)c1 | > 100000 | inhibition at 1 µM (CYP3A4 [4]): 15%
414 | – | 3.67 | 66.3 (≈ 191 µM) | 0.953 | 4.2 | – | 354 | 1.56 | 790 | – | 171 | > 10000 | 3.52 (≈ 10.2 µM) | CCN(Cc1cccnc1)c1cncc(-c2nc3ccccc3s2)c1 | 31800 | –
55 | 85 | 2.3 | > 100 | 0.68 | 32 | – | – | 1.6 | 1500 | – | – | – | – | CS(=O)(=O)N(Cc1cnc[nH]1)c1ccc(-c2nc3ccccc3s2)cc1 | – | inhibition at 1 µM (CYP3A4 [4]): 48%; PCR cure rate (Trypanosoma cruzi [19]): 0%; Parasitemia clearance after immunosuppression (Trypanosoma cruzi [19]): 0%; Parasitemia clearance after treatment (Trypanosoma cruzi [19]): 100%
– | – | – | – | – | – | – | > 10000 | – | – | – | 5560 | 7120 | – | CN1CCCC(CNCC(O)COc2ccc3cc(Br)ccc3c2)C1 (configuration not stated) | 19000 | IC50 (Leishmania infantum): 2030 nM and 1700 nM and 540 nM
20 | – | 2.7 | > 100 | – | 85 | 17 nM | 19.4 | 1.8 | – | 5.5 nM | 2.93 | > 10000 | 6.3 (≈ 15.1 µM) | CO/N=C(\C)c1ccc(-n2ccnc2)c(NC(=O)c2cnc(-c3ccccn3)s2)c1 | 68000 | IC50 (L6): > 100000 nM; microsomal CLint (in vitro [14]): 75 µL/min/mg; half-life (in vitro [15]): 23 min
– | – | – | – | – | – | > 10000 nM | – | – | – | – | – | 5430 | – | CCN(c1ccccc1)S(=O)(=O)c1ccc(Cl)c(NC(=O)CN(C)C2CCN(C)CC2)c1 | 51500 | IC50 (L6): 54100 nM
< 7 | 80 | 3.4 | > 100 | < 0.23 | > 250 | – | 156 | 2.1 | 4000 | – | 15.3 | – | 3.1 (≈ 9.27 µM) | CCN(Cc1c[nH]cn1)c1ccc(-c2nc3ccccc3s2)cc1 | 36000 | inhibition at 1 µM (CYP3A4 [4]): 37%; PCR cure rate (Trypanosoma cruzi [19]): 0%; Parasitemia clearance after immunosuppression (Trypanosoma cruzi [19]): 0%; Parasitemia clearance after treatment (Trypanosoma cruzi [19]): 80%
